The values that follow come from ChEMBL document CHEMBL1139451, “The discovery of ezetimibe: a view from outside the receptor” (2004).

Activity calls are given as the source filed them. The calls are words filed in the database; no cut-off is given here.

Broadly, the ED50 is the midpoint of the dose-response relation.

Experiment [1] concerns Cricetinae gen. sp. In words: Compound was tested for the change in liver cholesterol (CE) levels in hamster. It is filed as functional, Cricetulus griseus.
Experiment [2] relates to Cricetinae gen. sp. In words: Compound was tested for the change in liver cholesterol (CE) levels in hamsters. It is filed as functional, Cricetulus griseus.
Experiment [3] concerns the target T1, Sterol O-acyltransferase 1 (Cricetulus griseus) (UniProt Q60457).
T1 sequence (whole entry): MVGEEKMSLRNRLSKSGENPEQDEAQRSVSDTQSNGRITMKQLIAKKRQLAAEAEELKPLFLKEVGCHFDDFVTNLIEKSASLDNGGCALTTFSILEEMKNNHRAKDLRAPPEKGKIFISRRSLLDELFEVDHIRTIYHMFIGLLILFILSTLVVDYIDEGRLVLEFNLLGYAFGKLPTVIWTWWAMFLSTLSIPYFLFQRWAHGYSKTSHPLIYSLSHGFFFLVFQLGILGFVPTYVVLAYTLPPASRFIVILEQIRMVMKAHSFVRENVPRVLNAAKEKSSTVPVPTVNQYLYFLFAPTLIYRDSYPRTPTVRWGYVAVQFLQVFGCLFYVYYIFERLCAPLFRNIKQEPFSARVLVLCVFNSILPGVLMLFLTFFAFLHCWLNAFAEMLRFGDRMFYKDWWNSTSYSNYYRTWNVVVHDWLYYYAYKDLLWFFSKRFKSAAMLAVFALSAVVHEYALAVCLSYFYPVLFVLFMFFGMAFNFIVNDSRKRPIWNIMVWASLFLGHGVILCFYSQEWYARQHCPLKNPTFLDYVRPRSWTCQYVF
The experiment in a line: Compound was tested for the change in liver cholesteryl ester (CE) levels by the inhibition of ACAT in hamster at 50 mg/kg p.o.; NE=No effect. It is filed as functional, organism-based. Also noted: dose 50 mg/kg.

For experiment [4], the target named is T1, Sterol O-acyltransferase 1 (Cricetulus griseus). The experiment in a line: Compound was tested for the change in serum cholesterol (SC) levels by the inhibition of ACAT in hamster at 50 mg/kg p.o.; NE=No effect. The class given is functional, organism-based. Further details: dose 50 mg/kg.
For experiment [5] the target is unchanged. The experiment in a line: Compound was tested for the change in liver cholesteryl ester (CE) levels by the inhibition of ACAT in hamster at 50 mg/kg p.o. It is filed as functional, organism-based. Also noted: dose 50 mg/kg.
Experiment [6] has the same target. The experiment in a line: Compound was tested for the change in serum cholesterol (SC) levels by the inhibition of ACAT in hamster at 50 mg/kg p.o. The class given is functional, organism-based. Further details: dose 50 mg/kg.
The species named for experiment [7] is Canis familiaris. The experiment in a line: Compound was tested for the change in serum cholesterol (SC) levels in cholesterol fed dog. The class given is functional. As to conditions: Canis lupus familiaris.
For experiment [8], the species on record is Homo sapiens. In words: Compound was tested for the reduction in high density lipoprotein cholesterol. It is filed as functional.
For experiment [9], the species on record is Homo sapiens. In words: Compound was tested for the reduction in low density lipoprotein cholesterol. The class given is functional.
The species entered for experiment [10] is Homo sapiens. In words: Compound was tested for the reduction in total cholesterol. The class given is functional.
For experiment [11], the species on record is Homo sapiens. The experiment in a line: Compound was tested for the reduction in triglycerides. It is filed as functional.
In experiment [12] the test system is Monkey. The experiment in a line: Compound was tested for the change in serum cholesterol (SC) levels in cholesterol fed monkey. The class given is functional. As to conditions: Cercopithecidae, in Primates.
The species named for experiment [13] is Rattus norvegicus. The experiment in a line: Compound was tested for the change in serum cholesterol (SC) level in cholesterol fed rat. The class given is functional.

Turning to `CC(=O)c1ccc([C@@H]2[C@@H](CCC(=O)c3ccccc3)C(=O)N2c2ccc(C(C)=O)cc2)cc1`, the ED50 in experiment [1] was 1.9 mg/kg.

`O=Cc1ccc([C@@H]2[C@@H](CC[C@@H](O)c3ccccc3)C(=O)N2c2ccc(C=O)cc2)cc1` had an ED50 in experiment [1] of 5 mg/kg. In experiment [2], `O=Cc1ccc([C@@H]2[C@@H](CC[C@H](O)c3ccccc3)C(=O)N2c2ccc(C=O)cc2)cc1` showed an ED50 of 0.9 mg/kg. In the case of `COc1ccc([C@@H]2[C@@H](/C=C/Cc3ccccc3)C(=O)N2c2ccc(OC)cc2)cc1`, the Change in cholesterol entry in experiment [3] and in experiment [4] was “inactive” each time.

Take `COc1ccc([C@@H]2[C@@H](/C=C\Cc3ccccc3)C(=O)N2c2ccc(OC)cc2)cc1`: the Change in cholesterol in experiment [5] was -73%; in [6], -20%. Turning to `O=C1[C@H](CCCc2ccccc2)[C@@H](c2ccc(O)cc2)N1c1ccc(O)cc1`, the Change in cholesterol in [5] is -78%. With `O=Cc1ccc([C@@H]2[C@@H](CCCc3ccc(O)cc3)C(=O)N2c2ccc(C=O)cc2)cc1`, the Change in cholesterol in [5] was -78%. Consider `O=Cc1ccc([C@@H]2[C@@H](CCCc3ccccc3)C(=O)N2c2ccc(O)cc2)cc1`, for which the Change in cholesterol in experiment [5] is -68%. As to `COc1ccc([C@@H]2N(c3ccccc3)C(=O)C23CCC(c2ccc(Cl)cc2)CC3)cc1` (stereo in doubt; 17) [listing 1 of 2 here], it took a dose of 0.66 mg/kg to reach the 50% effect level in [2] (ED50). With `COc1ccc([C@@H]2N(c3ccccc3)C(=O)C23CCC(c2ccc(Cl)cc2)CC3)cc1` (stereo in doubt; 17) [listing 2 of 2 here], the Change in cholesterol in experiment [5] is -97%; in experiment [6], -46%.

Consider `COc1ccc([C@@H]2N(c3ccccc3)C(=O)C23CCC(c2ccc(Cl)cc2)CC3)cc1` (stereo in doubt; 18), for which the Change in cholesterol result in [5] and in experiment [6] was “No effect” in each case. In the case of `O=C1[C@H](CC[C@H](O)c2ccc(F)cc2)[C@@H](c2ccc(O)cc2)N1c1ccc(F)cc1` [EZETIMIBE], the median effective dose (ED50) came out at 0.007 mg/kg in experiment [7], 0.04 mg/kg in [1], 0.0005 mg/kg in experiment [12] and 0.03 mg/kg in [13]. Also, the Mean was 1.3% in [8], -16.9% in experiment [9], -12.5% in experiment [10] and -5.7% in [11].
